Measured values from US20240409543A1, “PYRROLOPYRAZOLE SPIRO COMPOUND” (CHIA TAI TIANQING PHARMACEUTICAL GROUP CO., LTD., priority 2021, published 2024).

Tests used:
[1] = tested on: H358 cells (NCIH358_LUNG); test: Anti-proliferation experiment on tumor cells with KRAS mutations, H358 (3D CellTiter-Glo); type: cell-based; conditions: Homo sapiens, NCI-H358, 120 h, 5 days incubation with compound, ultra-low attachment plate
Text: (§1) Cell culture medium, penicillin/streptomycin antibiotics purchased from Wisent, and fetal bovine serum purchased from Biosera; 3D CellTiter-Glo (chemiluminescence detection reagent for cell viability) reagent purchased from Promega; Cell lines purchased from Nanjing Cobioer Biosciences Co., Ltd. and Wuhan Procell Life Science & Technology Co., Ltd; and Envision multimode microplate reader (PerkinElmer).
(§2) Different types of tumor cells were each seeded in an ultra-low attachment 96-well U-bottom plate, with 80 μL of cell suspension per well. The cell plate was incubated in a CO2 incubator overnight.
(§3) Each test compound was diluted in a 5-fold gradient to the 9th concentration (i.e., from 2 mM to 5.12 nM or from 200 μM to 0.512 nM) using a multi-channel pipette, with duplicate wells set up. 78 μL of medium was added to an intermediate plate, and the serially diluted compound was transferred to the corresponding wells of the intermediate plate at 2 μL/well. The mixture was mixed well and then transferred to the cell plate at 20 µL/well. The concentration of the compound transferred to the cell plate ranged from 10 μM to 0.0256 nM or from 1 μM to 0.00256 nM. The cell plate was then incubated in a CO2 incubator for 3-6 days.
(§4) The chemiluminescence detection reagent for cell viability was added to the cell plate at 100 μL/well, and the luminescence signals were stabilized by incubation for 10 min at room temperature. Readings were taken using the multimode microplate reader.
(§5) The original data were converted to inhibition rates and then the IC50 values were obtained by curve fitting using a four-parameter method (obtained from the “log(inhibitor) vs. response—Variable slope” model in GraphPad Prism). Table 2 illustrates the inhibitory activity of the compounds disclosed herein against the proliferation of different types of tumor cells.

[2] = tested on: ERK phosphorylation in H358 cells; test: Inhibitory activity against ERK phosphorylation in H358 cells (HTRF Phospho-ERK1/2 kit); type: cell-based; conditions: Homo sapiens, NCI-H358; starved H358 cells, 1 h compound incubation; read-out: H358 cell ERK phosphorylation IC50
Protocol: H358 cells purchased from Nanjing Cobioer Biosciences Co., Ltd., 1640 medium purchased from Biological industries, fetal bovine serum purchased from Biosera, and Advanced Phospho-ERK1/2 (THR202/TYR204) KIT purchased from Cisbio.
• 1. H358 cells were plated in a transparent 96-well cell culture plate, with 80 μL of cell suspension per well, each well containing 10000 H358 cells. The cell plate was incubated in a CO2 incubator at 37° C. overnight. • 2. The cell supernatant was discarded, and a starvation medium (1640+0.02% fetal bovine serum+1% […]) was added at 80 μL/well. The cell plate was then incubated in a CO2 incubator for cell starvation treatment overnight; • 3. Each test compound was diluted with 100% DMSO to 4 mM as the first concentration, and then diluted in a 5-fold gradient to the 8th concentration (i.e., from 4 mM to […]) using a pipette. 1 μL of the compound was then added to 79 μL of cell starvation medium. The mixture was mixed well, and then the compound solution was added to the corresponding wells of the cell plate at 20 μL/well. The cell plate was then put back to the CO2 incubator for incubation for another 1 h. At that time, the concentration of the compound ranged from 10 μM to 0.0256 nM, with the concentration of DMSO being 0.25%. • 4. After the incubation was completed, the cell supernatant was discarded, and a cell lysis buffer was added at 50 μL/well. The plate was then incubated with shaking at room temperature for 30 min. 5. The Phospho-ERK1/2 Eu Cryptate antibody and Phospho-ERK1/2 d2 antibody were diluted in a 20-fold gradient with the Detection buffer. • 6. 16 μL of the cell lysate supernatant from each well was transferred to a new 384-well white microplate, and then 2 μL of the Phospho-ERK1/2 Eu Cryptate antibody dilution and 2 μL of the Phospho-ERK1/2 d2 antibody dilution were added to each well. The mixture was incubated at room temperature for 4 h. • 7. After the incubation was completed, HTRF values were read using a multimode microplate reader, with an excitation wavelength of 320 nm and emission wavelengths of 615 nm and 665 nm.
The original data were converted to inhibition rates and then the IC50 values were obtained by curve fitting using a four-parameter method.

SHP2 = biological target: T1, SHP2 (Homo sapiens, UniProt Q06124); test: SHP2 in-vitro enzymology experiment (Homogeneous Full Length SHP-2 Assay Kit, DiFMUP substrate); type: biochemical; conditions: 60 min pre-incubation, 30 min reaction at 25° C.
T1 construct: Homogeneous Full Length SHP-2 Assay Kit (purchased from BPS Bioscience); purchased BPS Bioscience
T1 sequence (Q06124 1-593): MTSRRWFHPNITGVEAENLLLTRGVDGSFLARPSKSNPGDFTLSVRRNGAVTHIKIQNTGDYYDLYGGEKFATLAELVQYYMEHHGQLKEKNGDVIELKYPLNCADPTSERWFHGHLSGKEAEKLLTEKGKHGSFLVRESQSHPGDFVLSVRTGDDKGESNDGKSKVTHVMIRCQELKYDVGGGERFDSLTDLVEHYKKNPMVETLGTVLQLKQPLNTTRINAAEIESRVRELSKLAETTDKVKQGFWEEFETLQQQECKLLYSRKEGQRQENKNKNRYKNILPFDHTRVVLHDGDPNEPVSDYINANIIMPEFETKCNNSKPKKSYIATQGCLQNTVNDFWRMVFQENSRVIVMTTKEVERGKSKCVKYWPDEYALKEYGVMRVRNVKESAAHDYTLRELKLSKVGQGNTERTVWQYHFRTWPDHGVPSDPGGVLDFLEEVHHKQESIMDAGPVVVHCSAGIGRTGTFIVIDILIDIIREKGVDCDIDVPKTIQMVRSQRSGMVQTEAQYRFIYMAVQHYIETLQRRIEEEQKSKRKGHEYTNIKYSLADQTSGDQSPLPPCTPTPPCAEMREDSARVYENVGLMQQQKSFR
Protocol: Experimental materials: Homogeneous Full Length SHP-2 Assay Kit (purchased from BPS Bioscience) and NIVO multimode microplate reader.
Preparation of 1× buffer (ready-to-use): 5× buffer was diluted with deionized water to give 1× buffer, which was then placed on ice for later use.
Each test compound was diluted with 100% DMSO to 100 μM as the first concentration, and then diluted in a 4-fold gradient to the 8th concentration (i.e., from 100 μM to 6.1 nM) using a multi-channel pipette. Each gradient of the test compound was diluted with 1× buffer to prepare a working solution with 10% DMSO. The resulting solution was then added to the corresponding wells of a plate at 5 μL/well, with duplicate wells set up. The plate was then centrifuged at 1000 rpm for 1 min.
18 μL of a prepared reaction mixed solution (containing 12.25 μL of deionized water, 5 μL of 5× buffer; 0.25 μL of SHP-2 substrate polypeptide (100 μM), and 0.5 μL of DTT (250 mM)) was added to each well. The plate was then centrifuged at 1000 rpm for 1 min.
An SHP-2 enzyme was diluted to 0.1 ng/μL with 1× buffer. The resulting solution was added to the corresponding wells at 2 μL/well, and 2 μL of 1× buffer and […] were added to each negative control well. This step was performed on ice. The reaction system was then incubated at 25° C. for 60 min for compound pre-incubation.
After the compound pre-incubation was completed, 25 μL of a substrate working solution (containing 19.45 μL of deionized water, 5 μL of 5× buffer; 0.5 μL of DTT (250 mM), and 0.05 μL of SHP-2 Substrate (DiFMUP) (10 mM)) was added to each well, and the reaction system was allowed to react at 25° C. for 30 min. At that time, the final concentration gradient of the compound ranged from 1 μM to 0.061 nM. After the reaction was completed, the fluorescence values were read using the NIVO multimode microplate reader, with an excitation wavelength of 360 nm and an emission wavelength of 460 nm.
Detection of compound background reading values: Each gradient of the test compound diluted with 100% DMSO was added to a new compound plate at 5 μL/well, and then 1× buffer was added at 45 μL/well to achieve a 10-fold dilution to prepare a working solution with 10% DMSO. Next, the compound working solution was added to the detection plate at 5 μL/well, and then 1× buffer was added at 45 μL/well to achieve another 10-fold dilution, bringing the final concentration of DMSO to 1%. The plate was then centrifuged at 1000 rpm for 1 min. The fluorescence values were read using the multimode microplate reader, with an excitation wavelength of 360 nm and an emission wavelength of 460 nm.
The original data were converted to inhibition rates and the IC50 values were obtained by curve fitting using a four-parameter method.

[3] = tested on: MiaPaCa-2 cells (MIAPACA2_PANCREAS); test: Anti-proliferation experiment on tumor cells with KRAS mutations, MiaPaCa-2 (3D CellTiter-Glo); type: cell-based; conditions: Homo sapiens, MIA PaCa-2, 72 h, 3 days incubation with compound, ultra-low attachment plate
Text: as §1, §2, §3, §4, §5

Row | IC50 [1] | IC50 [2] | IC50 (SHP2) | IC50 [3] | SMILES
1 | 62.1 nM | 55.6 nM | 2.28 nM | 35 nM | Cc1nc(N2CCC3(CC2)Cn2nccc2C3N)c(CO)nc1Sc1cccc(Cl)c1Cl (stereo not drawn) [Compound 3]
2 | 43.1 nM | 45.3 nM | 3.24 nM | 48.5 nM | Cc1nc(N2CCC3(CC2)Cn2nccc2C3N)c(C(N)=O)nc1Sc1ccnc(N)c1Cl (stereo not drawn) [Compound 5]
3 |  |  | 3.99 nM |  | CONc1nccc(Sc2nc(CO)c(N3CCC4(CC3)Cn3nccc3C4N)nc2C)c1Cl (stereo not drawn) [Compound 8]
4 | 38.9 nM |  | 1.09 nM | 19.3 nM | Cc1nc(Sc2ccnc(N)c2Cl)cnc1N1CCC2(CC1)Cn1nccc1C2N (stereo not drawn) [Compound 10]
